Data taken from ChEMBL document CHEMBL1145365, “The discovery of long acting beta2-adrenoreceptor agonists” (Bioorg Med Chem Lett, 2007).

Assays:
[1] = molecular target: Beta-2 adrenergic receptor (Cavia porcellus) (UniProt Q8K4Z4); test: Agonist potency at beta-2 adrenoceptor in guinea pig trachea model relative to salmeterol; format: functional, tissue-based
[2] = Half life in human liver microsome at 1 uM
[3] = Distribution coefficient, log D of the compound; conditions: octanol/water
[4] = molecular target: Beta-2 adrenergic receptor (Cavia porcellus) (UniProt Q8K4Z4); test: Effect on guinea pig trachea model assessed as duration of muscle tone; format: functional, tissue-based; conditions: Muscle tissue
[5] = molecular target: Beta-2 adrenergic receptor (Homo sapiens, UniProt P07550)
Description: Agonist activity at human recombinant beta-2 adrenoceptor expressed in CHO cells assessed as elevation of cAMP

[6] = Clearance in iv dosed rat; format: ADME, organism-based; conditions: in vivo
in vitro = conditions: human, Caco-2, pH 7.4
Description: Permeability from apical to basolateral side of the Caco-2 cell membrane at 25 uM in pH 7.4

[7] = Volume of distribution in iv dosed rat; format: ADME, organism-based; conditions: in vivo, read-out: Vdss
[8] = Half life in iv dosed rat; format: ADME, organism-based; conditions: in vivo

Chain of Beta-2 adrenergic receptor (P07550 whole entry): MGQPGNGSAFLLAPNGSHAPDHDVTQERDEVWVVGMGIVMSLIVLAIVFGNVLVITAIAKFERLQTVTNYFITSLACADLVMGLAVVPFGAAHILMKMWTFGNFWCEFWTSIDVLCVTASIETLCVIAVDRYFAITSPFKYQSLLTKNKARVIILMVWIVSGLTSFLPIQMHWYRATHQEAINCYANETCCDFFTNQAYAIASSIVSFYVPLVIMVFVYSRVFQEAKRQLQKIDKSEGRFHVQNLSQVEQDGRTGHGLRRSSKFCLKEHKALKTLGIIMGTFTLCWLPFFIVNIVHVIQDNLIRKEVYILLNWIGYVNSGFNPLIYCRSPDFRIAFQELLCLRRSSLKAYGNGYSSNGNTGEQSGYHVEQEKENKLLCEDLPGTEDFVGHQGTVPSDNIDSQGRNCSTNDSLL
Chain of Beta-2 adrenergic receptor (Cavia porcellus) (Q8K4Z4 whole entry, looked up): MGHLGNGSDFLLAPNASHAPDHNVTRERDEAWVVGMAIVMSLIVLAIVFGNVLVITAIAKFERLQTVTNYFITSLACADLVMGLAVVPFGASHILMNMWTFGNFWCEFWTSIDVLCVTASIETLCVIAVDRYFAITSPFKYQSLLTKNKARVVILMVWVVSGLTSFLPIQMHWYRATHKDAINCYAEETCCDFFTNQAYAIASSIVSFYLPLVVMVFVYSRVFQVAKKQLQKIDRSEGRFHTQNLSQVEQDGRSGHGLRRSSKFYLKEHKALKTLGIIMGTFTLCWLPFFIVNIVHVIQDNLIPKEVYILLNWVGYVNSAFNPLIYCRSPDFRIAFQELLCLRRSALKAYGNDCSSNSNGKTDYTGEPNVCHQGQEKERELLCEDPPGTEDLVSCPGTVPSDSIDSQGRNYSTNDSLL

| SMILES | Activity [1] | half-life at 1 µM ([2]; liver microsomes) [min] | logD [3] | TIME [4] [h] | further results |
| --- | --- | --- | --- | --- | --- |
| CC(C)(Cc1cccc(CC(=O)NCc2ccccc2)c1)NC[C@H](O)c1ccc(O)c(CO)c1 | – | – | 1 | – | EC50 [5]: 0.02 nM |
| COc1cccc(OC)c1CNC(=O)Cc1cccc(C[C@@H](C)NC[C@H](O)c2ccc(O)c(CO)c2)c1 | 0.3 | – | 0.8 | 1.5 | – |
| C[C@H](Cc1cccc(CC(=O)NCc2cc(Cl)cc(Cl)c2)c1)NC[C@H](O)c1ccc(O)c(CO)c1 | 0.5 | – | 2.3 | 7.2 | Papp A→B at 25 µM (in vitro): 1 ×10⁻⁶ cm/s |
| C[C@H](Cc1cccc(CC(=O)NC2Cc3ccccc3C2)c1)NC[C@H](O)c1ccc(O)c(CO)c1 | 0.1 | – | 1.6 | 5.4 | Papp A→B at 25 µM (in vitro): 1 ×10⁻⁶ cm/s |
| C[C@H](Cc1cccc(CC(=O)NCc2ccccc2)c1)NC[C@H](O)c1ccc(O)c(CO)c1 | – | – | 0.8 | – | EC50 [5]: 0.096 nM |
| OCc1cc([C@@H](O)CNCCCCCCOCCCCc2ccccc2)ccc1O [SALMETEROL] | 1 | – | 2.5 | – | Vd [7]: 16.6 L/kg |
| O=C(Cc1cccc(CCNC[C@H](O)c2ccc(O)c(CO)c2)c1)NCc1ccccc1 | – | – | 0.4 | – | EC50 [5]: 0.096 nM |

Continued, in another order:

| Activity [1] | half-life at 1 µM ([2]; liver microsomes) [min] | logD [3] | TIME [4] [h] | SMILES | further results |
| --- | --- | --- | --- | --- | --- |
| 1 | 2 | 1.5 | 3.9 | C[C@H](Cc1cccc(CC(=O)NCc2cccc3ccccc23)c1)NC[C@H](O)c1ccc(O)c(CO)c1 | – |
| 0.9 | – | – | 6.6 | C[C@H](Cc1cccc(CC(=O)NCc2cc(C(F)(F)F)ccc2F)c1)NC[C@H](O)c1ccc(O)c(CO)c1 | half-life at 1 µM ([2]; microsomes): 9 min |
| 0.07 | – | – | 5.2 | C[C@H](Cc1cccc(CC(=O)NCc2c(F)cccc2Cl)c1)NC[C@H](O)c1ccc(O)c(CO)c1 | – |
| 0.4 | 4 | 2.6 | 9 | C[C@H](Cc1cccc(CC(=O)NCc2ccc(Cl)c(Cl)c2)c1)NC[C@H](O)c1ccc(O)c(CO)c1 | clearance [6]: 123 mL/min/kg; Papp A→B at 25 µM (in vitro): 1 ×10⁻⁶ cm/s; Vd [7]: 16.6 L/kg; half-life [8]: 90 min |
| 1 | 15 | 2.4 | 8.1 | C[C@H](Cc1cccc(CC(=O)NCc2ccc(OC(F)(F)F)cc2)c1)NC[C@H](O)c1ccc(O)c(CO)c1 | – |
| 0.5 | 10 | 2.2 | 4.6 | Cc1ccc(CNC(=O)Cc2cccc(C[C@@H](C)NC[C@H](O)c3ccc(O)c(CO)c3)c2)cc1C | – |
